Calls of active or inactive are those of the source. The rule behind the calls is not given here.
Tests used:
[1] = molecular target: T1, Glucocorticoid receptor (Rattus norvegicus, UniProt P06536); assay: Transactivation of glucocorticoid receptor in rat H42E cells assessed as induction of TAT measuring degradation of tyrosine to p-hydroxy phenyl pyruvate at 1 uM relative to prednisolone; type: cell-based; details: read-out: Efficacy
T1 sequence (P06536 whole entry): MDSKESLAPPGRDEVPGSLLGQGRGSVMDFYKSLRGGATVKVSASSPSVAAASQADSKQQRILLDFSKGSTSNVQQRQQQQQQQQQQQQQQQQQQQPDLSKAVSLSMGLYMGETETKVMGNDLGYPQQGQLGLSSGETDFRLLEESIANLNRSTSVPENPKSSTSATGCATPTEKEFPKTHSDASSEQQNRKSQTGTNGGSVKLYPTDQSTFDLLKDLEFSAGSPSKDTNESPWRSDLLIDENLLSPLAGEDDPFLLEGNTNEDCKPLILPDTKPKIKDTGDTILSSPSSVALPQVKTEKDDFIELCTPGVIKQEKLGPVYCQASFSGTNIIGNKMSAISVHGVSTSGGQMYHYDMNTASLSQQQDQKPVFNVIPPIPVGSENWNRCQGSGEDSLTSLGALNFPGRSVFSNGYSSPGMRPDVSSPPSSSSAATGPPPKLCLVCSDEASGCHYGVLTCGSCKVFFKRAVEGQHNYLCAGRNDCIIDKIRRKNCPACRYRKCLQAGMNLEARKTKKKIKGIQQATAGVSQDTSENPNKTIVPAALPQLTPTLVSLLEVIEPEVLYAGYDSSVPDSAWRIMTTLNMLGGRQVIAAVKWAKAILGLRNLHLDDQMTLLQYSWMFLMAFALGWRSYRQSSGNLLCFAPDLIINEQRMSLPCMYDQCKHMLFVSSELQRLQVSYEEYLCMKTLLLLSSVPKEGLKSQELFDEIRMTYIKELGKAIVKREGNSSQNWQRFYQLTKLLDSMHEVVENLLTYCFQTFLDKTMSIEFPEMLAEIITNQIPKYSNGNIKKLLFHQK

[2] = molecular target: T2, Glucocorticoid receptor (Homo sapiens, UniProt P04150); assay: Transactivation of glucocorticoid receptor in human HepG2 cells assessed as induction of TAT measuring degradation of tyrosine to p-hydroxy phenyl pyruvate at 1 uM relative to untreated control; type: cell-based; details: hepg2, 1 µM
T2 sequence (P04150 whole entry): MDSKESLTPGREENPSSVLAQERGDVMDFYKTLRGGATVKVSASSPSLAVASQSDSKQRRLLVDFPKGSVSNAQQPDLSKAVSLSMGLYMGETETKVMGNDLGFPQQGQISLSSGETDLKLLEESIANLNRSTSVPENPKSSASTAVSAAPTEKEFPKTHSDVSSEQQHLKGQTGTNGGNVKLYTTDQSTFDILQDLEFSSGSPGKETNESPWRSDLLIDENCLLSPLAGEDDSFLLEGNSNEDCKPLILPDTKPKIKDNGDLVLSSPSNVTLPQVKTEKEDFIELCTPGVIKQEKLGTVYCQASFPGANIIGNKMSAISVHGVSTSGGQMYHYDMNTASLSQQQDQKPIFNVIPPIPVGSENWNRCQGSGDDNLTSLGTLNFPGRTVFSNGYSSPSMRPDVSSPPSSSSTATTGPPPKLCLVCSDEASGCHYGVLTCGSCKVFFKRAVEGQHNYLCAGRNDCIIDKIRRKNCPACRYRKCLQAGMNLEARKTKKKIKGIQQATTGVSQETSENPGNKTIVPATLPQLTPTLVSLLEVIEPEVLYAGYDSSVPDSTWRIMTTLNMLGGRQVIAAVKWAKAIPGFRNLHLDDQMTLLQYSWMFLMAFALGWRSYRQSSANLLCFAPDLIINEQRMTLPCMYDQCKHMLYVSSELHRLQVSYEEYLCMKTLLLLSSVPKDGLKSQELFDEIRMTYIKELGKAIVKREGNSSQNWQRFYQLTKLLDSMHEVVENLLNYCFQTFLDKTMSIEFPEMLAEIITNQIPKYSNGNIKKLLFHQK

[3] = tested on: Rattus norvegicus; assay: Antiinflammatory activity against Brown Norway rat allergic lung inflammation model assessed as total cell inhibition at 10 mg/kg, po for 3 days; type: functional; set-up: scale not given: the % may be the effect or the level left
[4] = tested on: Rattus norvegicus; assay: Toxicity in Brown Norway rat allergic lung inflammation model assessed as decrease in thymus weight at 10 mg/kg, po for 3 days; type: organism-based; set-up: dose 10 mg/kg, route oral; scale not given: the % may be the effect or the level left; details: in vivo, 72 h
[5] = AUC in Brown Norway rat at 10 mg/kg, po; type: ADME, organism-based; set-up: dose 10 mg/kg, route oral; details: plasma
[6] = tested on: Rattus norvegicus; assay: Antiinflammatory activity in ovalbumin-induced allergic Brown Norway rat lung inflammation model assessed as inhibition of forced vital capacity at 3 mg/kg, po qd administered 3 days before ovalbumin-challenge measured 24 hrs of post ovalbumin challenge; type: functional
[7] = tested on: Rattus norvegicus; assay: Antiinflammatory activity in ovalbumin-induced allergic Brown Norway rat lung inflammation model assessed as inhibition of forced vital capacity at 10 mg/kg, po qd administered 3 days before ovalbumin-challenge measured 24 hrs of post ovalbumin challenge; type: functional
[8] = tested on: Rattus norvegicus; assay: Antiinflammatory activity in ovalbumin-induced allergic Brown Norway rat lung inflammation model assessed as inhibition of forced vital capacity at 30 mg/kg, po qd administered 3 days before ovalbumin-challenge measured 24 hrs of post ovalbumin challenge; type: functional
[9] = tested on: Rattus norvegicus; assay: Antiinflammatory activity in po dosed ovalbumin-induced allergic Brown Norway rat lung inflammation model assessed as inhibition of forced vital capacity administered 3 days before ovalbumin-challenge measured 24 hrs of post ovalbumin challenge; type: functional
[10] = molecular target: T2, Glucocorticoid receptor; assay: Transrepression activity at glucocorticoid receptor in human H292 cells assessed as inhibition of TNF-stimulated IL-8 production; type: cell-based
[11] = molecular target: T1, Glucocorticoid receptor; assay: Transactivation of glucocorticoid receptor in rat H42E cells assessed as induction of TAT measuring degradation of tyrosine to p-hydroxy phenyl pyruvate; type: cell-based; details: read-out: IC50 (the source's name)
[12] = tested on: Rattus norvegicus; assay: Antiinflammatory activity against Brown Norway rat allergic lung inflammation model assessed as total cell inhibition at 0.3 to 30 mg/kg, po for 10 days relative to prednisolone; type: functional, organism-based
[13] = tested on: Rattus norvegicus; assay: Toxicity in Brown Norway rat allergic lung inflammation model assessed as decrease in thymus weight at 0.3 to 30 mg/kg, po for 10 days; type: organism-based; set-up: dose 0.3-30 mg/kg, route oral; details: in vivo, 240 h
[14] = tested on: Rattus norvegicus; assay: Antiinflammatory activity in rat assessed as inhibition of LPS-induced TNF-alpha secretion up to 50 mg/kg, po; type: functional, organism-based; set-up: dose 50 mg/kg
[15] = molecular target: T3, Progesterone receptor (Homo sapiens, UniProt P06401); assay: Inhibition of human progesterone receptor
T3 sequence (P06401 whole entry): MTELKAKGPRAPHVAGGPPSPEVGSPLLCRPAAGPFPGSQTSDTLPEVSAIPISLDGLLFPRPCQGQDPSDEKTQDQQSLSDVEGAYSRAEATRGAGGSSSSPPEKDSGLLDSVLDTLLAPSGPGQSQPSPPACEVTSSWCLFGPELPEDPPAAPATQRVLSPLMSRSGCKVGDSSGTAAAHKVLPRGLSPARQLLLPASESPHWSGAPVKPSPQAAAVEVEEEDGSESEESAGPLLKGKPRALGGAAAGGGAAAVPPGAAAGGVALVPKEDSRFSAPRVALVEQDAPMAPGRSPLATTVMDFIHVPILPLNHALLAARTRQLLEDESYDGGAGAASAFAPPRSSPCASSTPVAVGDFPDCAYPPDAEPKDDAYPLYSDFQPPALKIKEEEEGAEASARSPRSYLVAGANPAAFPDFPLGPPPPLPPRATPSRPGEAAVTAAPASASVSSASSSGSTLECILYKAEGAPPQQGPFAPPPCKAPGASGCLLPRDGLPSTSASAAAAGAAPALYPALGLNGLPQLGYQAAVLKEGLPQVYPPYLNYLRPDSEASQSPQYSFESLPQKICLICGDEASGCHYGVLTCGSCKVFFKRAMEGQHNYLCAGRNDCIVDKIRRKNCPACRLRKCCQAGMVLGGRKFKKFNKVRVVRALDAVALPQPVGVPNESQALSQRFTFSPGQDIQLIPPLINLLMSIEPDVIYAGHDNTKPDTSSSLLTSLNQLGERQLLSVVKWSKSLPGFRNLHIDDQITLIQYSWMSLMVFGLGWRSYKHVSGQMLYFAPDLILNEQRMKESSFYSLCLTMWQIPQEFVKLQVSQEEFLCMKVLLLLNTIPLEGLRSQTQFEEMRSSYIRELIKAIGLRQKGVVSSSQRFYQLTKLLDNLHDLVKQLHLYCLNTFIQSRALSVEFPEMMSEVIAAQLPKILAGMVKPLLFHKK

[16] = molecular target: T2, Glucocorticoid receptor; assay: Inhibition of human glucocorticoid receptor

| Emax at 1 µM [1] [%] | Efficacy [2] [%] | AUC [5] [ng·h/mL] | IC50 [10] [nM] | EC50 [11] [nM] | IC50 [15] [nM] | IC50 [16] [nM] | SMILES | Activity [3] [%] | Activity [4] [%] | inhibition in vivo at 3 mg/kg [6] [%] | inhibition in vivo at 10 mg/kg [7] [%] | inhibition in vivo at 30 mg/kg [8] [%] | ED50 [9] [mg/kg] | Activity [12] | Activity [13] | inhibition [14] |
| --- | --- | --- | --- | --- | --- | --- | --- | --- | --- | --- | --- | --- | --- | --- | --- | --- |
| 100 | 81 | 1250 |  |  |  |  | C[C@]12C=CC(=O)C=C1CC[C@@H]1[C@@H]2[C@@H](O)C[C@@]2(C)[C@H]1CC[C@]2(O)C(=O)CO [PREDNISOLONE] | 56 | 53 | 43 | 81 | 111 | 5 |  |  |  |
| 4 | 11 | 960 | 47 | 235 | 1370 | 7.3 | Cn1c(SCC(=O)[C@@]2(O)CC[C@H]3[C@@H]4CCC5=CC(=O)C=C[C@]5(C)[C@H]4[C@@H](O)C[C@@]32C)nc2ccccc21 | 58 | 4 | 23 | 50 | 71 | 10 | Active | Toxic | Active |

From ChEMBL document CHEMBL1938296, “Steroidal C-21 heteroaryl thioethers (Part 2): discovery of orally bioavailable selective glucocorticoid receptor modulators (dissociated steroids)” (Bioorg Med Chem Lett, 2012)
